From publication PMC9254247, “Dual-sensitive antibacterial peptide nanoparticles prevent dental caries” (Theranostics, 2022)

System: clinically isolated S.mutans strains
Test: Bactericidal activity against clinically isolated S. mutans strains (CFU counting)
Assay type: cell-based, Streptococcus mutans
Conditions: for bacterial viability (survival): 10 min, CFU
Experimental: Table S3 The bactericidal activity of pHly -1 NPs and CHX against clinically isolated S.mutans strains a
“a” represents the bacterial viability after the pHly-1 NPs and CHX treatment for 10 min. The killing activity of pHly -1 NPs and CHX was measured against clinically isolated S.mutans strains by counting the CFU of alive bacteria. […]
Minimal inhibition concentration (MIC) determination . S.mutans UA159 (ATCC 700610) and 20 clinical S.mutans strains were used. S.mutans UA159 was purchased from Shanghai Biofeng Biotechnology Co., LTD. These bacteria grown in brain heart infusion broth (BHI, Beijing Land Bridge, China) at 37 °C under anaerobic conditions. […]
Bacterial killing by pHly-1 NPs at various pHs. pHly-1 NPs were diluted in BHI medium of different pHs (pH 4.5, 5.5, 6.8, and 7.0) to obtain specific diluted solutions (final volume of 200 μ L). 1 μ L bacterial suspension (2×10^8 CFU/mL) in the logarithmic phase was added into corresponding diluted solutions and mixed individually. After being incubated for 10 min at 37 °C under anaerobic conditions, aliquots of 20 μL bacterial suspension were plated on BHI agar plates. The bacterial killing activity of pHly -1 NPs was measured by counting the CFU of alive bacteria with agar plating after incubation under anaerobic conditions for 48 h at 37 °C. The results were determined and presented of three repeats. Bacterial survival(%) = CFU of bacteria treated with drugs/CFU of bacteria treated with negative control× 100% 2. […]
For SEM, S. mutans UA159 was treated by the same way to SYTO 9/PI double staining asay and then harvested, washed, and then fixed in 2.5 % glutaraldehyde for 3 h. After dehydration by serial concentrations of ethanol solutions (10%, 25%, 50%, 75%, 95%, and 100%) and lyophiliz ation overnight, the lyophilized samples were coated with goldand then photographed by SEM.

[H]/N=C(\N/C(=N/[H])NCCCCCCNC(=N)NC(=N)Nc1ccc(Cl)cc1)Nc1ccc(Cl)cc1 [CHX, chlorhexidine]
viability (55 μM, in 4 strains): over 90%
bacterial viability (survival) (strain CS-1, pH 4.5, 22 μM): 95.2%
bacterial viability (survival) (strain CS-1, pH 4.5, 55 μM): 54%
bacterial viability (survival) (strain CS-1, pH 5.5, 22 μM): 91.6%
bacterial viability (survival) (strain CS-1, pH 5.5, 55 μM): 31.3%
bacterial viability (survival) (strain CS-2, pH 4.5, 22 μM): 96.4%
bacterial viability (survival) (strain CS-2, pH 4.5, 55 μM): 69.1%
bacterial viability (survival) (strain CS-2, pH 5.5, 22 μM): 86.9%
bacterial viability (survival) (strain CS-2, pH 5.5, 55 μM): 76.6%
bacterial viability (survival) (strain CS-4, pH 4.5, 22 μM): 100%
bacterial viability (survival) (strain CS-4, pH 4.5, 55 μM): 66.4%
bacterial viability (survival) (strain CS-4, pH 5.5, 22 μM): 100%
bacterial viability (survival) (strain CS-4, pH 5.5, 55 μM): 74.6%
bacterial viability (survival) (strain CS-5, pH 4.5, 22 μM): 100%
bacterial viability (survival) (strain CS-5, pH 4.5, 55 μM): 67.7%
bacterial viability (survival) (strain CS-5, pH 5.5, 22 μM): 89.6%
bacterial viability (survival) (strain CS-5, pH 5.5, 55 μM): 54.9%
bacterial viability (survival) (strain CS-6, pH 4.5, 22 μM): 106%
bacterial viability (survival) (strain CS-6, pH 4.5, 55 μM): 67.0%
bacterial viability (survival) (strain CS-6, pH 5.5, 22 μM): 95.6%
bacterial viability (survival) (strain CS-6, pH 5.5, 55 μM): 88.8%
bacterial viability (survival) (strain CS-7, pH 4.5, 22 μM): 97.0%
bacterial viability (survival) (strain CS-7, pH 4.5, 55 μM): 54%
bacterial viability (survival) (strain CS-7, pH 5.5, 22 μM): 91.6%
bacterial viability (survival) (strain CS-7, pH 5.5, 55 μM): 67.7%
bacterial viability (survival) (strain CS-8, pH 4.5, 22 μM): 79.5%
bacterial viability (survival) (strain CS-8, pH 4.5, 55 μM): 49.4%
bacterial viability (survival) (strain CS-8, pH 5.5, 22 μM): 81.8%
bacterial viability (survival) (strain CS-8, pH 5.5, 55 μM): 61.8%
bacterial viability (survival) (strain CS-9, pH 4.5, 22 μM): 83.9%
bacterial viability (survival) (strain CS-9, pH 4.5, 55 μM): 77%
bacterial viability (survival) (strain CS-9, pH 5.5, 22 μM): 73.8%
bacterial viability (survival) (strain CS-9, pH 5.5, 55 μM): 46.9%
bacterial viability (survival) (strain CS-10, pH 4.5, 22 μM): 83.6%
bacterial viability (survival) (strain CS-10, pH 4.5, 55 μM): 52.3%
bacterial viability (survival) (strain CS-10, pH 5.5, 22 μM): 68.9%
bacterial viability (survival) (strain CS-10, pH 5.5, 55 μM): 68.2%
bacterial viability (survival) (strain CS-11, pH 4.5, 22 μM): 100%
bacterial viability (survival) (strain CS-11, pH 4.5, 55 μM): 50.7%
bacterial viability (survival) (strain CS-11, pH 5.5, 22 μM): 140%
bacterial viability (survival) (strain CS-11, pH 5.5, 55 μM): 59.4%
bacterial viability (survival) (strain CS-12, pH 4.5, 22 μM): 98.6%
bacterial viability (survival) (strain CS-12, pH 4.5, 55 μM): 91.1%
bacterial viability (survival) (strain CS-12, pH 5.5, 22 μM): 110%
bacterial viability (survival) (strain CS-12, pH 5.5, 55 μM): 74.2%
bacterial viability (survival) (strain CS-13, pH 4.5, 22 μM): 93.5%
bacterial viability (survival) (strain CS-13, pH 4.5, 55 μM): 87.4%
bacterial viability (survival) (strain CS-13, pH 5.5, 22 μM): 74.0%
bacterial viability (survival) (strain CS-13, pH 5.5, 55 μM): 65.8%
bacterial viability (survival) (strain CS-14, pH 4.5, 22 μM): 100%
bacterial viability (survival) (strain CS-14, pH 4.5, 55 μM): 51.9%
bacterial viability (survival) (strain CS-14, pH 5.5, 22 μM): 74.2%
bacterial viability (survival) (strain CS-14, pH 5.5, 55 μM): 71.6%
bacterial viability (survival) (strain CS-16, pH 4.5, 22 μM): 95.9%
bacterial viability (survival) (strain CS-16, pH 4.5, 55 μM): 10.9%
bacterial viability (survival) (strain CS-16, pH 5.5, 22 μM): 87.9%
bacterial viability (survival) (strain CS-16, pH 5.5, 55 μM): 20%
bacterial viability (survival) (strain CS-17, pH 4.5, 22 μM): 108.2%
bacterial viability (survival) (strain CS-17, pH 4.5, 55 μM): 92.3%
bacterial viability (survival) (strain CS-17, pH 5.5, 22 μM): 102.0%
bacterial viability (survival) (strain CS-17, pH 5.5, 55 μM): 48.3%
bacterial viability (survival) (strain CS-18, pH 4.5, 22 μM): 68.2%
bacterial viability (survival) (strain CS-18, pH 4.5, 55 μM): 71.5%
bacterial viability (survival) (strain CS-18, pH 5.5, 22 μM): 114.8%
bacterial viability (survival) (strain CS-18, pH 5.5, 55 μM): 92.2%
bacterial viability (survival) (strain CS-19, pH 4.5, 22 μM): 93.0%
bacterial viability (survival) (strain CS-19, pH 4.5, 55 μM): 101%
bacterial viability (survival) (strain CS-19, pH 5.5, 22 μM): 96.9%
bacterial viability (survival) (strain CS-19, pH 5.5, 55 μM): 87.9%
bacterial viability (survival) (strain CS-20, pH 4.5, 22 μM): 91.0%
bacterial viability (survival) (strain CS-20, pH 4.5, 55 μM): 100%
bacterial viability (survival) (strain CS-20, pH 5.5, 22 μM): 103.9%
bacterial viability (survival) (strain CS-20, pH 5.5, 55 μM): 88.9%
